From patent publication US20170100489A1, “POLYETHYLENE GLYCOL-MODIFIED INTEGRIN BLOCKER HM-3 AND USE THEREOF” (HANMEI XU, priority 2012, published 2017)
Marks after values point to notes of the source that are not given here. Where no end group is shown, it is not given here. mPEG‑SC20k = methoxy polyethylene glycol-succinimidyl-carbonate, 20000 Da

Tests used:
[1] = tested on: sarcoma HT-1080 xenograft tumors; experiment: Tumor growth inhibition, HT-1080 xenograft; conditions: 36.7 mg/kg
Method: Tumor diameter was measured with a vernier caliper. […] After administration, all mice were sacrificed. Stripped the tumors and weighed.

[2] = tested on: human kidney cancer A498 xenograft tumors; experiment: Tumor growth inhibition, A498 xenograft; conditions: for Rate of inhibiting tumors / Tumor weight: Once 3 days
Method: Human kidney cancer A498 cell lines in logarithmic growth phase were picked and made into 5×10^7/ml cell suspension of under sterile conditions, and then 0.1 ml suspension was inoculated subcutaneously at the right armpit of nude mice. Tumor diameter was measured with a vernier caliper. The animals which had tumors with a size of 100-200 mm^3 were randomly divided into groups. The effect of polypeptide on anti-tumor was dynamically observed through the method of measuring tumor diameter. The times of measuring tumor diameter were once 2 days, and meantime, weighed mice. The mice in experimental group were infused polypeptide through tail vein. The mice in the placebo group were injected saline with the same volume, once 1 day; Taxol group: 10 mg/kg, once 1 week; Endostar group: 2.5 mg/kg, once 1 day; The groups of high, intermediate and low polypeptide: 6, 3, 1.5 mg/kg, respectively, once 1 day. After administration, all mice were sacrificed. Stripped the tumors and weighed.

[3] = tested on: human cervical cancer HeLa xenograft tumors; experiment: Tumor growth inhibition, HeLa xenograft; conditions: for Rate of inhibiting tumors / Tumor weight: Once 3 days
Method: Human cervical cancer HeLa cell lines in logarithmic growth phase were picked, and made into 5×10^7/ml cell suspension of under sterile conditions, and then 0.1 ml suspension was inoculated subcutaneously at the right armpit of nude mice. Tumor diameter was measured with a vernier caliper. The animals which had tumors with a size of 100-200 mm^3 were randomly divided into groups. The effect of polypeptide on anti-tumor was dynamically observed through the method of measuring tumor diameter. The times of measuring tumor diameter were once 2 days, and meantime, weighed mice. The mice in experimental group were infused polypeptide through tail vein. The mice in the placebo group were injected saline with the same volume, once 1 day; Taxol group: 10 mg/kg, once 1 week; Endostar group: 2.5 mg/kg, once 1 day; The groups of high, intermediate and low polypeptide: 6, 3, 1.5 mg/kg, respectively, once 1 day. After administration, all mice were sacrificed. Stripped the tumors and weighed.

[4] = tested on: human ovarian cancer SK-OV-3 xenograft tumors; experiment: Tumor growth inhibition, SK-OV-3 xenograft; conditions: for Rate of inhibiting tumors / Tumor weight: Once 3 days
Method: Human ovarian cancer SK-OV-3 cell lines in logarithmic growth phase were picked, and made into 5×10^7/ml cell suspension of under sterile conditions, and then 0.1 ml suspension was inoculated subcutaneously at the right armpit of nude mice. Tumor diameter was measured with a vernier caliper. The animals which had tumors with a size of 100-200 mm^3 were randomly divided into groups. The effect of polypeptide on anti-tumor was dynamically observed through the method of measuring tumor diameter. The times of measuring tumor diameter were once 2 days, and meantime, weighed mice. The mice in experimental group were infused polypeptide through tail vein. The mice in the placebo group were injected saline with the same volume, once 1 day; Cisplatin group: 10 mg/kg, once 1 week; Endostar group: 2.5 mg/kg, once 1 day; The groups of high, intermediate and low polypeptide: 6, 3, 1.5 mg/kg, respectively, once 1 day. After administration, all mice were sacrificed. Stripped the tumors and weighed.

[5] = tested on: human pancreatic cancer SW-1990 xenograft tumors; experiment: Tumor growth inhibition, SW-1990 xenograft; conditions: for Rate of inhibiting tumors / Tumor weight: Once 3 days
Method: Picked the tumor tissue of vigorous growth and was cut into pieces of about 1.5 mm^3. Under sterile conditions, the tumor tissue was inoculated subcutaneously on the right of nude mice. Tumor diameter was measured with a Vernier caliper. The animals which had tumors with a size of 100-200 mm^3 were randomly divided into groups. The effect of polypeptide on anti-tumor was dynamically observed through the method of measuring tumor diameter. The times of measuring tumor diameter were once 2 days, and meantime, weighed mice. The mice in experimental group were infused polypeptide through tail vein, once 3 days. The mice in the placebo group were injected saline with the same volume.
a, b respectively represent the length and width. According to the result of measurement, calculate the relative tumor volume. Evaluation of antitumor activity is relative tumor proliferation rate T/C(%). The formula is as follows: T/C(%)^=TRTV/CRTV×100%
TRTV:Treatment group RTV; CRTV: negative control group RTV

[6] = tested on: human gallbladder cancer GBC-SD xenograft tumors; experiment: Tumor growth inhibition, GBC-SD xenograft; conditions: for Rate of inhibiting tumors / Tumor weight: Once 3 day
Method: Human gallbladder cancer GBC-SD cell lines in logarithmic growth phase were picked and made into 5×10^7/ml cell suspension of under sterile conditions, and then 0.1 ml suspension was inoculated subcutaneously at the right armpit of nude mice. Tumor diameter was measured with a vernier caliper. The animals which had tumors with a size of 100-200 mm^3 were randomly divided into groups. The effect of polypeptide on anti-tumor was dynamically observed through the method of measuring tumor diameter. The times of measuring tumor diameter were once 2 days, and meantime, weighed mice. The mice in experimental group were infused polypeptide through tail vein. The mice in the placebo group were injected saline with the same volume, once 1 day; Taxol group: 10 mg/kg, once 1 week; Endostar group: 2.5 mg/kg, once 1 day; The groups of high, intermediate and low polypeptide: 6, 3, 1.5 mg/kg, respectively, once 1 day. After administration, all mice were sacrificed. Stripped the tumors and weighed.

[7] = tested on: human nasopharyngeal cancer CNE xenograft tumors; experiment: Tumor growth inhibition, CNE xenograft; conditions: for Rate of inhibiting tumors / Tumor weight: Once 3 days
Method: Picked the tumor tissue of vigorous growth and was cut into pieces of about 1.5 mm^3. Under sterile conditions, the tumor tissue was inoculated subcutaneously on the right of nude mice. Tumor diameter was measured with a vernier caliper. The animals which had tumors with a size of 100-200 mm^3 were randomly divided into groups. The effect of polypeptide on anti-tumor was dynamically observed through the method of measuring tumor diameter. The times of measuring tumor diameter were once 2 days, and meantime, weighed mice. The mice in experimental group were infused polypeptide through tail vein, once 3 days. The mice in the placebo group were injected saline with the same volume. Tumor volume formula:
a, b respectively represent the length and width. According to the result of measurement, calculate the relative tumor volume. Evaluation of antitumor activity is relative tumor proliferation rate T/C(%). The formula is as follows: T/C(%)^−TRTV/CRTV×100%
TRTV: Treatment Group RTV; CRTV: Negative Control Group RTV

[8] = tested on: human testicular cancer 5637 xenograft tumors; experiment: Tumor growth inhibition, 5637 xenograft; conditions: for Rate of inhibiting tumors / Tumor weight: Once 3 days
Method: Human testicular cancer 5637 cell lines in logarithmic growth phase were picked, and made into 5×10^7/ml cell suspension of under sterile conditions, and then 0.1 ml suspension was inoculated subcutaneously at the right armpit of nude mice. Tumor diameter was measured with a vernier caliper. The animals which had tumors with a size of 100-200 mm^3 were randomly divided into groups. The effect of polypeptide on anti-tumor was dynamically observed through the method of measuring tumor diameter. The times of measuring tumor diameter were once 2 days, and meantime, weighed mice. The mice in experimental group were infused polypeptide through tail vein. […] After administration, all mice were sacrificed. Stripped the tumors and weighed.

[9] = high, 36.7 mg/kg, listed as polypeptide
[10] = intermediate, 18.75 mg/kg, listed as polypeptide
[11] = low, 9.38 mg/kg, listed as polypeptide

mPEG-SC20k-Ile-Val-Arg-Arg-Ala-Asp-Arg-Ala-Ala-Val-Pro-Gly-Gly-Gly-Gly-Arg-Gly-Asp ({mPEG‑SC20k}-IVRRADRAAVPGGGGRGD) [mPEG-SC20k-HM-3]
Rate of inhibiting tumors ([1]; Once 3 days): 65.04%* | Tumor weight ([1]; Once 3 days): 0.678 g | Rate of inhibiting tumors ([1]; Once 3 days, listed as polypeptide): 65.04% | inhibition of tumor growth compared with negative control ([1]; P<0.05): significant inhibition role | inhibition of tumor growth compared with negative control ([2]; 36.7 mg/kg, P<0.05): significant inhibition role | Rate of inhibiting tumors ([2]; high, 36.7 mg/kg): 55.11%* | Tumor weight ([2]; high, 36.7 mg/kg): 0.424 g | Rate of inhibiting tumors [2, 9]: 55.11% | Rate of inhibiting tumors ([2]; intermediate, 18.75 mg/kg): 46.95% | Tumor weight ([2]; intermediate, 18.75 mg/kg): 0.501 g | Rate of inhibiting tumors [2, 10]: 46.95% | Rate of inhibiting tumors ([2]; low, 9.38 mg/kg): 39.00% | Tumor weight ([2]; low, 9.38 mg/kg): 0.576 g | Rate of inhibiting tumors [2, 11]: 39.00% | inhibition of tumor growth compared with negative control ([3]; 36.7 mg/kg, P<0.05): significant inhibition role | Rate of inhibiting tumors ([3]; high, 36.7 mg/kg): 82.07%* | Tumor weight ([3]; high, 36.7 mg/kg): 0.222 g | Rate of inhibiting tumors [3, 9]: 82.07% | Rate of inhibiting tumors ([3]; intermediate, 18.75 mg/kg): 74.11% | Tumor weight ([3]; intermediate, 18.75 mg/kg): 0.320 g | Rate of inhibiting tumors [3, 10]: 74.11% | Rate of inhibiting tumors ([3]; low, 9.38 mg/kg): 63.32% | Tumor weight ([3]; low, 9.38 mg/kg): 0.453 g | Rate of inhibiting tumors [3, 11]: 63.32% | inhibition of tumor growth compared with negative control ([4]; 36.7 mg/kg, P<0.05): significant inhibition role | Rate of inhibiting tumors ([4]; high, 36.7 mg/kg): 50.40%* | Tumor weight ([4]; high, 36.7 mg/kg): 0.627 g | Rate of inhibiting tumors [4, 9]: 50.40% | Rate of inhibiting tumors ([4]; intermediate, 18.75 mg/kg): 44.62% | Tumor weight ([4]; intermediate, 18.75 mg/kg): 0.700 g | Rate of inhibiting tumors [4, 10]: 44.62% | Rate of inhibiting tumors ([4]; low, 9.38 mg/kg): 42.33% | Tumor weight ([4]; low, 9.38 mg/kg): 0.730 g | Rate of inhibiting tumors [4, 11]: 42.33% | inhibition of tumor growth compared with negative control ([5]; 36.7 mg/kg, P<0.05): significant inhibition role | Rate of inhibiting tumors ([5]; high, 36.7 mg/kg): 67.76%* | Tumor weight ([5]; high, 36.7 mg/kg): 0.446 g | Rate of inhibiting tumors [5, 9]: 67.76% | Rate of inhibiting tumors ([5]; intermediate, 18.75 mg/kg): 64.55% | Tumor weight ([5]; intermediate, 18.75 mg/kg): 0.491 g | Rate of inhibiting tumors [5, 10]: 64.55% | Rate of inhibiting tumors ([5]; low, 9.38 mg/kg): 50.40% | Tumor weight ([5]; low, 9.38 mg/kg): 0.687 g | Rate of inhibiting tumors [5, 11]: 50.40% | inhibition of tumor growth compared with negative control ([6]; 36.7 mg/kg, P<0.05): significant inhibition role | Rate of inhibiting tumors ([6]; high, 36.7 mg/kg): 61.45%* | Tumor weight ([6]; high, 36.7 mg/kg): 0.409 g | Rate of inhibiting tumors [6, 9]: 61.45% | Rate of inhibiting tumors ([6]; intermediate, 18.75 mg/kg): 50.59% | Tumor weight ([6]; intermediate, 18.75 mg/kg): 0.524 g | Rate of inhibiting tumors [6, 10]: 50.59% | Rate of inhibiting tumors ([6]; low, 9.38 mg/kg): 40.32% | Tumor weight ([6]; low, 9.38 mg/kg): 0.633 g | Rate of inhibiting tumors [6, 11]: 40.32% | inhibition of tumor growth compared with negative control ([7]; 36.7 mg/kg, P<0.05): significant inhibition role | toxic and side effects ([7]; 36.7 mg/kg, compared with positive cisplatin group): no obvious toxic and side effects | Rate of inhibiting tumors ([7]; high, 36.7 mg/kg): 68.22%* | Tumor weight ([7]; high, 36.7 mg/kg): 0.382 g | Rate of inhibiting tumors [7, 9]: 68.22% | Rate of inhibiting tumors ([7]; intermediate, 18.75 mg/kg): 66.19% | Tumor weight ([7]; intermediate, 18.75 mg/kg): 0.406 g | Rate of inhibiting tumors ([7]; low, 9.38 mg/kg): 55.32% | Tumor weight ([7]; low, 9.38 mg/kg): 0.537 g | Rate of inhibiting tumors [7, 11]: 55.32% | inhibition of tumor growth compared with negative control ([8]; 36.7 mg/kg, P<0.05): significant inhibition role | Rate of inhibiting tumors ([8]; high, 36.7 mg/kg): 60.20%* | Tumor weight ([8]; high, 36.7 mg/kg): 0.802 g | Rate of inhibiting tumors [8, 9]: 60.20% | Rate of inhibiting tumors ([8]; intermediate, 18.75 mg/kg): 51.32% | Tumor weight ([8]; intermediate, 18.75 mg/kg): 0.981 g | Rate of inhibiting tumors [8, 10]: 51.32% | Rate of inhibiting tumors ([8]; low, 9.38 mg/kg): 50.99% | Tumor weight ([8]; low, 9.38 mg/kg): 0.988 g | Rate of inhibiting tumors [8, 11]: 50.99%
